In patent US6770597B2, “Benzohydrazide derivatives as herbicides and desiccant compositions containing them” (Ishihara Sangyo Kaisha, Ltd., priority 2002, dated 2004):

How the values were obtained:
Type in all cases: in vivo
[1] = tested on: field corn (Zea mays L., var. Dekalb 535, CORN); test: Greenhouse herbicide screen, post-emerge application, crop damage rating; settings: POST emergent, 14 days after application, scale 0-100
How it was run: (§1)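 Phytotoxicity read at 14 days on a 0–100 visual scale. Plants were treated either pre-emergence, one day after planting in sandy loam, or post-emergence at about 2–3 leaves, with acetone sprays at 15–1000 g ai/ha.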

[2] = tested on: upland rice (Oryza sp., var.Cocodrie, RICE); test: as above; settings: POST emergent, 14 days after application, scale 0-100
How it was run: as §1

[3] = tested on: green foxtail (Setaria viridis, SETVI); test: Greenhouse herbicide screen, pre-emerge application, phytotoxicity rating; settings: PRE emergent, 14 days after application, rating scale 0-100
How it was run: as §1

[4] = tested on: johnsongrass (Sorghum halepense, SORHA); test: as above; settings: PRE emergent, 14 days after application, rating scale 0-100
How it was run: as §1

[5] = tested on: barnyardgrass (Echinochloa crus-galli, ECHCG); test: as above; settings: PRE emergent, 14 days after application, rating scale 0-100
How it was run: as §1

[6] = tested on: large crabgrass (Digitaria sanguinalis, DIGSA); test: as above; settings: PRE emergent, 14 days after application, rating scale 0-100
How it was run: as §1

[7] = tested on: cocklebur (Xanthium strumarium, XANST); test: as above; settings: PRE emergent, 14 days after application, rating scale 0-100
How it was run: as §1

[8] = tested on: ivyleaf morningglory (Ipomoea hederacea, IPOHE); test: as above; settings: PRE emergent, 14 days after application, rating scale 0-100
How it was run: as §1

[9] = tested on: lambsquarters (Chenopodium album, CHEAL); test: as above; settings: PRE emergent, 14 days after application, rating scale 0-100
How it was run: as §1

[10] = tested on: velvetleaf (Abutilon theophrasti, ABUTH); test: as above; settings: PRE emergent, 14 days after application, rating scale 0-100
How it was run: as §1

[11] = tested on: sicklepod (Cassia obtusifolia, CASOB); test: as above; settings: PRE emergent, 14 days after application, rating scale 0-100
How it was run: as §1

[12] = tested on: redroot pigweed (Amaranthus retrofiexus, AMARE); test: as above; settings: PRE emergent, 14 days after application, rating scale 0-100
How it was run: as §1

[13] = tested on: common ragweed (Ambrosia artemisiifolia L., AMBEL); test: as above; settings: PRE emergent, 14 days after application, rating scale 0-100
How it was run: as §1

[14] = tested on: field corn (Zea mays L., var. Dekalb 535, CORN); test: Greenhouse herbicide screen, pre-emerge application, crop damage rating; settings: PRE emergent, 14 days after application, rating scale 0-100
How it was run: as §1

[15] = tested on: upland rice (Oryza sp., var.Cocodrie, RICE); test: as above; settings: PRE emergent, 14 days after application, rating scale 0-100
How it was run: as §1

[16] = tested on: green foxtail (Setaria viridis, SETVI); test: Greenhouse herbicide screen, post-emerge application, phytotoxicity rating; settings: POST emergent, 14 days after application, scale 0-100
How it was run: as §1

[17] = tested on: johnsongrass (Sorghum halepense, SORHA); test: as above; settings: POST emergent, 14 days after application, scale 0-100
How it was run: as §1

[18] = tested on: barnyardgrass (Echinochloa crus-galli, ECHCG); test: as above; settings: POST emergent, 14 days after application, scale 0-100
How it was run: as §1

[19] = tested on: large crabgrass (Digitaria sanguinalis, DIGSA); test: as above; settings: POST emergent, 14 days after application, scale 0-100
How it was run: as §1

[20] = tested on: cocklebur (Xanthium strumarium, XANST); test: as above; settings: POST emergent, 14 days after application, scale 0-100
How it was run: as §1

[21] = tested on: ivyleaf morningglory (Ipomoea hederacea, IPOHE); test: as above; settings: POST emergent, 14 days after application, scale 0-100
How it was run: as §1

[22] = tested on: lambsquarters (Chenopodium album, CHEAL); test: as above; settings: POST emergent, 14 days after application, scale 0-100
How it was run: as §1

[23] = tested on: velvetleaf (Abutilon theophrasti, ABUTH); test: as above; settings: POST emergent, 14 days after application, scale 0-100
How it was run: as §1

[24] = tested on: sicklepod (Cassia obtusifolia, CASOB); test: as above; settings: POST emergent, 14 days after application, scale 0-100
How it was run: as §1

[25] = tested on: redroot pigweed (Amaranthus retrofiexus, AMARE); test: as above; settings: POST emergent, 14 days after application
How it was run: as §1

[26] = tested on: common ragweed (Ambrosia artemisiifolia L., AMBEL); test: as above; settings: POST emergent, 14 days after application, scale 0-100
How it was run: as §1

[27] = 63 g ai/ha, scale 0-100 (0 no damage, 100 complete death)

CC1CCCC(C)N1N=C(OC(=O)C(Cl)Cl)c1cc(-n2c(=O)cc(C(F)(F)F)n(C)c2=O)c(F)cc1Cl (stereo not drawn) [Compound 4-8]
crop damage rating CORN ([1]; 63 g ai/ha): 90 | crop damage rating CORN ([1]; 250 g ai/ha): 100 | crop damage rating RICE ([2]; 63 g ai/ha): 0 | crop damage rating RICE ([2]; 250 g ai/ha): 15 | phytotoxicity rating SETVI ([3]; 63 g ai/ha): 65 | phytotoxicity rating SETVI ([3]; 250 g ai/ha): 100 | phytotoxicity rating SORHA ([4]; 63 g ai/ha): 0 | phytotoxicity rating SORHA ([4]; 250 g ai/ha): 80 | phytotoxicity rating ECHCG ([5]; 63 g ai/ha): 0 | phytotoxicity rating ECHCG ([5]; 250 g ai/ha): 15 | phytotoxicity rating DIGSA ([6]; 63 g ai/ha): 50 | phytotoxicity rating DIGSA ([6]; 250 g ai/ha): 99 | phytotoxicity rating XANST ([7]; 63 g ai/ha): 30 | phytotoxicity rating XANST ([7]; 250 g ai/ha): 60 | phytotoxicity rating IPOHE ([8]; 63 g ai/ha): 95 | phytotoxicity rating IPOHE ([8]; 250 g ai/ha): 100 | phytotoxicity rating CHEAL ([9]; 63 g ai/ha): 100 | phytotoxicity rating CHEAL ([9]; 250 g ai/ha): 100 | phytotoxicity rating ABUTH ([10]; 63 g ai/ha): 100 | phytotoxicity rating ABUTH ([10]; 250 g ai/ha): 100 | phytotoxicity rating CASOB ([11]; 63 g ai/ha): 60 | phytotoxicity rating CASOB ([11]; 250 g ai/ha): 90 | phytotoxicity rating AMARE ([12]; 63 g ai/ha): 100 | phytotoxicity rating AMARE ([12]; 250 g ai/ha): 100 | phytotoxicity rating AMBEL ([13]; 63 g ai/ha): 60 | phytotoxicity rating AMBEL ([13]; 250 g ai/ha): 99 | crop damage rating CORN ([14]; 63 g ai/ha): 0 | crop damage rating CORN ([14]; 250 g ai/ha): 50 | crop damage rating RICE ([15]; 63 g ai/ha): 0 | crop damage rating RICE ([15]; 250 g ai/ha): 0 | phytotoxicity rating SETVI ([16]; 63 g ai/ha): 15 | phytotoxicity rating SETVI ([16]; 250 g ai/ha): 60 | phytotoxicity rating SORHA ([17]; 63 g ai/ha): 10 | phytotoxicity rating SORHA ([17]; 250 g ai/ha): 65 | phytotoxicity rating ECHCO ([18]; 63 g ai/ha): 70 | phytotoxicity rating ECHCO ([18]; 250 g ai/ha): 90 | phytotoxicity rating DIGSA ([19]; 63 g ai/ha): 0 | phytotoxicity rating DIGSA ([19]; 250 g ai/ha): 75 | phytotoxicity rating XANST ([20]; 63 g ai/ha): 100 | phytotoxicity rating XANST ([20]; 250 g ai/ha): 100 | phytotoxicity rating IPOHE ([21]; 63 g ai/ha): 100 | phytotoxicity rating IPOHE ([21]; 250 g ai/ha): 100 | phytotoxicity rating CHEAL ([22]; 63 g ai/ha): 100 | phytotoxicity rating CHEAL ([22]; 250 g ai/ha): 100 | phytotoxicity rating ABUTH ([23]; 63 g ai/ha): 100 | phytotoxicity rating ABUTH ([23]; 250 g ai/ha): 100 | phytotoxicity rating CASOB ([24]; 63 g ai/ha): 70 | phytotoxicity rating CASOB ([24]; 250 g ai/ha): 75 | phytotoxicity rating AMARE [25, 27]: 100 | phytotoxicity rating AMARE ([25]; 250 g ai/ha, scale 0-100): 100 | phytotoxicity rating AMBEL ([26]; 63 g ai/ha): 80 | phytotoxicity rating AMBEL ([26]; 250 g ai/ha): 100

CC(=NN=C(OC(=O)C(Cl)Cl)c1cc(-n2c(=O)cc(C(F)(F)F)n(C)c2=O)c(F)cc1Cl)C(C)(C)C [Compound 5-4]
crop damage rating CORN ([1]; 63 g ai/ha): 60 | crop damage rating RICE ([2]; 63 g ai/ha): 10 | phytotoxicity rating SETVI ([3]; 63 g ai/ha): 50 | phytotoxicity rating SORHA ([4]; 63 g ai/ha): 85 | phytotoxicity rating ECHCG ([5]; 63 g ai/ha): 40 | phytotoxicity rating DIGSA ([6]; 63 g ai/ha): 55 | phytotoxicity rating XANST ([7]; 63 g ai/ha): 40 | phytotoxicity rating IPOHE ([8]; 63 g ai/ha): 100 | phytotoxicity rating CHEAL ([9]; 63 g ai/ha): 100 | phytotoxicity rating ABUTH ([10]; 63 g ai/ha): 100 | phytotoxicity rating CASOB ([11]; 63 g ai/ha): 30 | phytotoxicity rating AMARE ([12]; 63 g ai/ha): 100 | phytotoxicity rating AMBEL ([13]; 63 g ai/ha): 70 | crop damage rating CORN ([14]; 63 g ai/ha): 10 | crop damage rating RICE ([15]; 63 g ai/ha): 55 | phytotoxicity rating SETVI ([16]; 63 g ai/ha): 55 | phytotoxicity rating SORHA ([17]; 63 g ai/ha): 30 | phytotoxicity rating ECHCO ([18]; 63 g ai/ha): 90 | phytotoxicity rating DIGSA ([19]; 63 g ai/ha): 75 | phytotoxicity rating XANST ([20]; 63 g ai/ha): 65 | phytotoxicity rating IPOHE ([21]; 63 g ai/ha): 100 | phytotoxicity rating CHEAL ([22]; 63 g ai/ha): 70 | phytotoxicity rating ABUTH ([23]; 63 g ai/ha): 99 | phytotoxicity rating CASOB ([24]; 63 g ai/ha): 50 | phytotoxicity rating AMARE [25, 27]: 95 | phytotoxicity rating AMBEL ([26]; 63 g ai/ha): 95
